{"source": "patent US20080194611A1", "about": "“Modulation of Cell Barrier Dysfunction” (priority 2005, published 2008)", "key": {"[1]": {"tested_on": "membrane protein fractions of P. aeruginosa", "assay": "Binding of morphine to P. aeruginosa membrane protein", "set-up": "species or system Pseudomonas aeruginosa"}, "[2]": {"conditions": "intravenously applied; cited from earlier work"}, "[3]": {"tested_on": "PA-I lectin/adhesin expression in P. aeruginosa PA27853 and PAO1"}, "[4]": {"tested_on": "Human pulmonary microvascular endothelial cell", "assay_type": "cell-based"}, "P. aeruginosa PA27853": {"tested_on": "P. aeruginosa PA27853", "assay_type": "in vivo, mice", "conditions": "slow release morphine pellets; daily 1×10^8 cfu/ml PA27853"}, "[5]": {"target": "T1, receptor tyrosine phosphatase mu (RPTPμ) (Homo sapiens, UniProt P28827)", "T1 construct": "Treated or untreated HPAEC lysates and/or immunoprecipitated RPTPμ were analyzed for tyrosine phosphatase activity; host or cells: human pulmonary endothelial cells (HPMVEC, 'HPAEC')", "T1 sequence (P28827 21-1452)": "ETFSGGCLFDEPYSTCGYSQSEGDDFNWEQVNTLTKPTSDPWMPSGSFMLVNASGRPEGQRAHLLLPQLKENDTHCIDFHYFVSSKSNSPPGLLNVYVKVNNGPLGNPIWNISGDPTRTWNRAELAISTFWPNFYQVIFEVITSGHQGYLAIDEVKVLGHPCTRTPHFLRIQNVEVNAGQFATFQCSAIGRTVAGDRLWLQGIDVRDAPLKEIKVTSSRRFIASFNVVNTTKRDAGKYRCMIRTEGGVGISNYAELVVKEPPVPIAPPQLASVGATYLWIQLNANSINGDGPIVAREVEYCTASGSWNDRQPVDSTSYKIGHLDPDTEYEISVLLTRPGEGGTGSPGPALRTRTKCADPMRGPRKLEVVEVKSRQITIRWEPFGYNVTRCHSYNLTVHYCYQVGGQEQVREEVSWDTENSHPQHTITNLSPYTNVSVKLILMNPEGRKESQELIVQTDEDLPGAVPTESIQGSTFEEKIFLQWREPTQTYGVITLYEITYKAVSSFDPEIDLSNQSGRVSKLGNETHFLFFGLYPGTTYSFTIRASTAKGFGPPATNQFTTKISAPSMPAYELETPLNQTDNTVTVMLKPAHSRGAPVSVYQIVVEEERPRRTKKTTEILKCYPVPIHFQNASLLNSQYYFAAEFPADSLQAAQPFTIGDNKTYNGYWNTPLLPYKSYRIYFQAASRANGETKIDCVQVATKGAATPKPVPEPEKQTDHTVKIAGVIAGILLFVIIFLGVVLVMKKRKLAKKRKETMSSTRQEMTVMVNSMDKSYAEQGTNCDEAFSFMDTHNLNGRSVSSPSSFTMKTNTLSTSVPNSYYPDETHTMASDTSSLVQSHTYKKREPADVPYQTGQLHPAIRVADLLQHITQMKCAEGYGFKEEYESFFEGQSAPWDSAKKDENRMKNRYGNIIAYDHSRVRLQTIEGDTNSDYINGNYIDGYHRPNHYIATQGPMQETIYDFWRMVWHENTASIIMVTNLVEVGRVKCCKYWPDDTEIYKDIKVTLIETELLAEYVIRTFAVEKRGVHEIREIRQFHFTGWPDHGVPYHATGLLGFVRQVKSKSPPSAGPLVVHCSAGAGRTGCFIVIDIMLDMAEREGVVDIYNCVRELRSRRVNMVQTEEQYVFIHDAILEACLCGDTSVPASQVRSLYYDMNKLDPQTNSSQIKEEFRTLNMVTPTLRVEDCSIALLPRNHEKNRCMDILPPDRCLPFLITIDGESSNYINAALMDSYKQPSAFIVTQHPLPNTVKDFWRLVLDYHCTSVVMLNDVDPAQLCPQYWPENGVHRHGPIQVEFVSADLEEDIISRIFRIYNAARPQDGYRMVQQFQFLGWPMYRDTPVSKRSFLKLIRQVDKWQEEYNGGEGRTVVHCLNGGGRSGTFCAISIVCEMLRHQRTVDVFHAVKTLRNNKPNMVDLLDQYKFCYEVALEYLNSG", "assay": "RPTPμ tyrosine phosphatase activity assay", "assay_type": "biochemical", "conditions": "treatment of HPMVEC"}, "[6]": {"conditions": "methadone maintenance patients; mean dose 0.1 mg/kg intravenously; cited from earlier work"}, "S1P3 receptor": {"tested_on": "S1P3 receptor", "assay": "Tyrosine phosphorylation (transactivation) of the S1P3 receptor", "assay_type": "cell-based, Human"}, "[7]": {"tested_on": "PA-I lectin/adhesin expression in P. aeruginosa 27853/PLL-EGFP"}, "[8]": {"tested_on": "total endothelial cell tyrosine phosphatase activity", "assay": "Total cellular tyrosine phosphatase activity assay", "assay_type": "cell-based, Human"}, "[9]": {"conditions": "cited from earlier work"}, "[10]": {"conditions": "in vivo; cited from earlier work"}}}
{"smiles": "CN1CC[C@]23c4c5ccc(O)c4O[C@H]2[C@@H](O)C=C[C@H]3[C@H]1C5", "note": "[morphine]", "values": [{"measurement": "binding to membrane protein fractions", "setting": "[1]", "value": "binds to membrane protein fractions"}, {"measurement": "concentration accumulated at tissue sites such as the intestinal mucosa", "setting": "[2]", "value": "≤ 100", "unit": "µM"}, {"measurement": "increase in PA-I expression", "setting": "[3]", "value": "four-fold"}, {"measurement": "response to express PA-I", "setting": "[3]", "value": "induce a robust response"}, {"measurement": "effect of agonist alone on endothelial cell barrier function (TER)", "setting": "[4]", "value": "induced endothelial cell barrier disruption in a dose-dependent manner"}, {"measurement": "mice developing severe sepsis", "setting": "P. aeruginosa PA27853", "value": "4/4"}, {"measurement": "mortality", "setting": "P. aeruginosa PA27853", "value": "significant mortality"}]}
{"smiles": "C[N+]1(CC2CC2)CCC23c4c5ccc(O)c4OC2C(=O)CCC3(O)C1C5", "note": "(stereo not shown) [MNTX, N-methylnaltrexone]", "values": [{"measurement": "RPTPμ tyrosine phosphatase activity", "setting": "[5]", "value": "enhanced RPTPμ tyrosine phosphatase activity"}, {"measurement": "mean plasma levels", "setting": "[6]", "value": 162, "unit": "ng/mL"}, {"measurement": "Src tyrosine phosphorylation of isolated S1P3 receptor, in vitro", "setting": "S1P3 receptor; RPTPμ from MNTX-treated (1 hour) endothelial cells", "value": "blocked Src tyrosine phosphorylation of the S1P3 receptor"}, {"measurement": "effect on agonist-induced S1P3 receptor transactivation", "setting": "S1P3 receptor; pre-treatment", "value": "completely blocked"}, {"measurement": "effect on morphine-induced PA-I lectin/adhesin expression", "setting": "[7]", "value": "significantly attenuated"}, {"measurement": "total endothelial cell tyrosine phosphatase activity", "setting": "[8]", "value": "increased total endothelial cell tyrosine phosphatase activity"}, {"measurement": "MNTX-mediated increase of total tyrosine phosphatase activity with RPTPμ silenced", "setting": "[8]; siRNA", "value": "significantly attenuated"}, {"measurement": "lipid solubility / polarity", "setting": "[9]", "value": "greater polarity and lower lipid solubility"}, {"measurement": "crossing of the blood-brain barrier", "setting": "[10]", "value": "does not cross the blood-brain barrier"}, {"measurement": "MNTX protection from thrombin- and LPS-induced disruption with mOP-R silenced (siRNA)", "setting": "[4]", "value": "little effect"}, {"measurement": "MNTX protection with RPTPμ silenced (siRNA)", "setting": "[4]", "value": "inhibited the protective effects of MNTX"}, {"measurement": "MNTX protection with S1P3 receptor silenced (siRNA)", "setting": "[4]", "value": "inhibited"}, {"measurement": "dose dependence of barrier protective effects", "setting": "[4]", "value": "Decreasing the dose of MNTX below 0.1 μM attenuated its barrier protective effects"}, {"measurement": "effect on LPS-induced endothelial cell barrier disruption", "setting": "[4]", "value": "attenuated endothelial cell barrier disruption"}, {"measurement": "effect on MS- and DAMGO-induced endothelial cell barrier disruption", "setting": "[4]", "value": "blocked"}, {"measurement": "effect on S1P barrier enhancement", "setting": "[4]", "value": "increased the sustained endothelial cell barrier-enhancing effect"}, {"measurement": "effect on ionomycin-induced endothelial cell barrier disruption", "setting": "[4]", "value": "but not from the Ca^2+ ionophore, ionomycin"}, {"measurement": "effect on thrombin-induced endothelial cell barrier disruption", "setting": "[4]", "value": "attenuated endothelial cell barrier disruption"}]}
